Measured values from PubChem BioAssay (NCI).
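All cell lines were grown in 96-well plates and treated with compound for 48 hours. At the TGI there is no net growth.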

What was measured:
Assay in all cases: NCI anticancer screen, dose series, 48 h
HCT-15 colon = system: HCT-15 colon
UACC-257 melanoma = system: UACC-257 melanoma
COLO 205 colon = system: COLO 205 colon
NCI/ADR-RES ovarian = system: NCI/ADR-RES ovarian
DU-145 prostate = system: DU-145 prostate
OVCAR-8 ovarian = system: OVCAR-8 ovarian
PC-3 prostate = system: PC-3 prostate
SR leukemia = system: SR leukemia
SW-620 colon = system: SW-620 colon
RPMI-8226 leukemia = system: RPMI-8226 leukemia
SK-MEL-5 melanoma = system: SK-MEL-5 melanoma
NCI-H226 lung = system: NCI-H226 lung
LOX IMVI melanoma = system: LOX IMVI melanoma
SF-295 CNS = system: SF-295 CNS
MALME-3M melanoma = system: MALME-3M melanoma
TK-10 renal = system: TK-10 renal
UACC-62 melanoma = system: UACC-62 melanoma
CCRF-CEM leukemia = system: CCRF-CEM leukemia
SN12C renal = system: SN12C renal
RXF 393 renal = system: RXF 393 renal
MDA-MB-435 = system: MDA-MB-435
KM12 colon = system: KM12 colon
A549 NSCLC = system: A549 NSCLC
HOP-62 NSCLC = system: HOP-62 NSCLC
HCT-116 colon = system: HCT-116 colon
ACHN renal = system: ACHN renal
U251 CNS = system: U251 CNS
BT-549 breast = system: BT-549 breast
UO-31 renal = system: UO-31 renal
SNB-75 CNS = system: SNB-75 CNS
SF-268 CNS = system: SF-268 CNS
HCC-2998 colon = system: HCC-2998 colon
SK-MEL-28 melanoma = system: SK-MEL-28 melanoma
NCI-H460 lung = system: NCI-H460 lung
MCF7 breast = system: MCF7 breast
HS 578T breast = system: HS 578T breast
M14 melanoma = system: M14 melanoma
OVCAR-3 ovarian = system: OVCAR-3 ovarian
K-562 leukemia = system: K-562 leukemia
T-47D breast = system: T-47D breast
MOLT-4 leukemia = system: MOLT-4 leukemia
786-0 renal = system: 786-0 renal
HT29 colon = system: HT29 colon
NCI-H522 lung = system: NCI-H522 lung
MDA-N = system: MDA-N
A498 renal = system: A498 renal
EKVX NSCLC = system: EKVX NSCLC
SNB-19 CNS = system: SNB-19 CNS
SK-MEL-2 melanoma = system: SK-MEL-2 melanoma
MDA-MB-231 breast = system: MDA-MB-231 breast
IGROV1 ovarian = system: IGROV1 ovarian
CAKI-1 renal = system: CAKI-1 renal
OVCAR-4 ovarian = system: OVCAR-4 ovarian
OVCAR-5 ovarian = system: OVCAR-5 ovarian
SK-OV-3 ovarian = system: SK-OV-3 ovarian
SF-539 CNS = system: SF-539 CNS
NCI-H23 lung = system: NCI-H23 lung
HOP-92 NSCLC = system: HOP-92 NSCLC

## ONC1=Nc2ccccc2C(=S)N2CSCC12 (stereo not drawn)
HCT-15 colon
  TGI: > 100 µM
UACC-257 melanoma
  TGI: > 100 µM
COLO 205 colon
  TGI: > 100 µM
NCI/ADR-RES ovarian
  TGI: > 100 µM
DU-145 prostate
  TGI: > 100 µM
OVCAR-8 ovarian
  TGI: > 100 µM
PC-3 prostate
  TGI: > 100 µM
SR leukemia
  TGI: 89 µM
SW-620 colon
  TGI: > 100 µM
RPMI-8226 leukemia
  TGI: > 100 µM
SK-MEL-5 melanoma
  TGI: 99.2 µM
NCI-H226 lung
  TGI: > 100 µM
LOX IMVI melanoma
  TGI: > 100 µM
SF-295 CNS
  TGI: > 100 µM
MALME-3M melanoma
  TGI: > 100 µM
TK-10 renal
  TGI: > 100 µM
UACC-62 melanoma
  TGI: > 100 µM
CCRF-CEM leukemia
  TGI: > 100 µM
SN12C renal
  TGI: > 100 µM
RXF 393 renal
  TGI: > 100 µM
MDA-MB-435
  TGI: 48.1 µM
KM12 colon
  TGI: > 100 µM
A549 NSCLC
  TGI: > 100 µM
HOP-62 NSCLC
  TGI: > 100 µM
HCT-116 colon
  TGI: > 100 µM
ACHN renal
  TGI: > 100 µM
U251 CNS
  TGI: > 100 µM
BT-549 breast
  TGI: > 100 µM
UO-31 renal
  TGI: > 100 µM
SNB-75 CNS
  TGI: > 100 µM
SF-268 CNS
  TGI: > 100 µM
HCC-2998 colon
  TGI: > 100 µM
SK-MEL-28 melanoma
  TGI: > 100 µM
NCI-H460 lung
  TGI: 42.3 µM
MCF7 breast
  TGI: > 100 µM
HS 578T breast
  TGI: > 100 µM
M14 melanoma
  TGI: > 100 µM
OVCAR-3 ovarian
  TGI: > 100 µM
K-562 leukemia
  TGI: > 100 µM
T-47D breast
  TGI: > 100 µM
MOLT-4 leukemia
  TGI: > 100 µM
786-0 renal
  TGI: > 100 µM
HT29 colon
  TGI: > 100 µM
NCI-H522 lung
  TGI: > 100 µM
MDA-N
  TGI: 45.1 µM
A498 renal
  TGI: > 100 µM
EKVX NSCLC
  TGI: > 100 µM
SNB-19 CNS
  TGI: > 100 µM
SK-MEL-2 melanoma
  TGI: > 100 µM
MDA-MB-231 breast
  TGI: > 100 µM
IGROV1 ovarian
  TGI: > 100 µM
CAKI-1 renal
  TGI: > 100 µM
OVCAR-4 ovarian
  TGI: > 100 µM
OVCAR-5 ovarian
  TGI: > 100 µM
SK-OV-3 ovarian
  TGI: > 100 µM

## Oc1cc(N2CCCC2)ccc1/C=N/N1C(=S)N(c2ccccc2)C(=Nc2ccccc2)C1=Nc1ccccc1
HCT-15 colon
  TGI: > 100 µM
UACC-257 melanoma
  TGI: > 100 µM
COLO 205 colon
  TGI: > 100 µM
NCI/ADR-RES ovarian
  TGI: > 100 µM
DU-145 prostate
  TGI: > 100 µM
OVCAR-8 ovarian
  TGI: > 100 µM
PC-3 prostate
  TGI: > 100 µM
SR leukemia
  TGI: > 100 µM
SW-620 colon
  TGI: > 100 µM
RPMI-8226 leukemia
  TGI: > 100 µM
SK-MEL-5 melanoma
  TGI: > 100 µM
NCI-H226 lung
  TGI: > 100 µM
SF-295 CNS
  TGI: > 100 µM
MALME-3M melanoma
  TGI: > 100 µM
TK-10 renal
  TGI: > 100 µM
UACC-62 melanoma
  TGI: > 100 µM
SN12C renal
  TGI: > 100 µM
RXF 393 renal
  TGI: 46.1 µM
SF-539 CNS
  TGI: > 100 µM
MDA-MB-435
  TGI: > 100 µM
KM12 colon
  TGI: > 100 µM
A549 NSCLC
  TGI: > 100 µM
HOP-62 NSCLC
  TGI: > 100 µM
NCI-H23 lung
  TGI: > 100 µM
HCT-116 colon
  TGI: > 100 µM
ACHN renal
  TGI: > 100 µM
U251 CNS
  TGI: > 100 µM
BT-549 breast
  TGI: > 100 µM
UO-31 renal
  TGI: > 100 µM
SF-268 CNS
  TGI: > 100 µM
HCC-2998 colon
  TGI: > 100 µM
SK-MEL-28 melanoma
  TGI: > 100 µM
NCI-H460 lung
  TGI: > 100 µM
MCF7 breast
  TGI: > 100 µM
HS 578T breast
  TGI: > 100 µM
M14 melanoma
  TGI: > 100 µM
OVCAR-3 ovarian
  TGI: > 100 µM
K-562 leukemia
  TGI: > 100 µM
T-47D breast
  TGI: > 100 µM
MOLT-4 leukemia
  TGI: > 100 µM
786-0 renal
  TGI: > 100 µM
HT29 colon
  TGI: > 100 µM
NCI-H522 lung
  TGI: > 100 µM
MDA-N
  TGI: > 100 µM
EKVX NSCLC
  TGI: > 100 µM
SNB-19 CNS
  TGI: > 100 µM
SK-MEL-2 melanoma
  TGI: > 100 µM
MDA-MB-231 breast
  TGI: 90.3 µM
IGROV1 ovarian
  TGI: > 100 µM
CAKI-1 renal
  TGI: > 100 µM
HOP-92 NSCLC
  TGI: > 100 µM
OVCAR-5 ovarian
  TGI: > 100 µM
SK-OV-3 ovarian
  TGI: > 100 µM
